The target in one assay is RET-V804L (Homo sapiens (Human), UniProt P07949, V804L). Kind of assay: Evaluation of RET kinase inhibiting activity (cell system), Ba/F3 cells overexpressing RET (V804L) mutant. Format: cell-based. As to conditions: Ba/F3, compound 2 hours. On the procedure:
(§1) Thereafter, 1 mL of Cell Lysis Buffer (Cell signaling technology, #9803), a single tablet of Phosphatase inhibitor (Roche, #04906837001), and a single tablet of Protease inhibitor (Roche, #0469312400) were added to 9 mL of MilliQ, and 20 ul of the obtained mixture was then added to each well. The mixture thus obtained was placed on ice for 20 minutes, so that the cells were lysed. A 5-ul aliquot was taken from the cell lysate, and thereafter, 64 nl of Myc antibody (Cell signaling technology, #3946) and Streptavidin Donor beads in an equal amount of 102 nl of P-Tyr-100 Acceptor beads included in the Alpha Screen Phosphotyrosine (P-Tyr-100) assay kit (Perkin Elmer, #6760620C) were added to the aliquot in accordance with the instruction manual included with the aforementioned assay kit. The obtained mixture was reacted at room temperature overnight, and a RET kinase inhibiting activity rate was then measured using Envision.

Assay [1] concerns the target RET recombinant protein (RET-wild type) (Homo sapiens (Human), UniProt P07949). As to the kind of experiment: Evaluation of RET kinase inhibiting activity (cell-free system), mobility shift assay. Format: biochemical. The procedure: (§2) 19 uL of the RET kinase solution was added to each of lines A to P of a 384-well plate, and thereafter, the test compound at each concentration was added to lines C to N, and further, 1 uL of dimethyl sulfoxide (hereinafter referred to as DMSO) was added to each of lines A, B, O and P. Thereafter, the obtained mixtures were each preincubated at room temperature for 20 minutes. Furthermore, a substrate solution A containing ATP (final concentration: 1 mM) and a substrate solution B containing no ATP, both in addition to a reaction buffer and FL-Peptide 22 (PerkinElmer, #760366, final concentration: 1.5 uM) were produced. The substrate solution A was added in an amount of 5 uL to lines B to 0, whereas the substrate solution B was added in an amount of 5 uL to lines A and P. The obtained mixtures were each incubated at 28° C. for 45 minutes. A reaction termination solution (100 mM HEPES (pH 7.4), 0.015% Briji-35, 40 mM EDTA, and 0.1% Coating Reagent 3) was added in an amount of 40 ul to the reaction mixture, so as to terminate the reaction.
(§3) Using EZ Reader II (Perkin Elmer), a substrate peptide was separated from a phosphorylated peptide in the reaction solution, and the product ratio (P/(P+S)) calculated from the peak (S) of the substrate peptide and the peak (P) of the phosphorylated peptide was used for evaluation. The inhibition of the test compound having each concentration was obtained by the following formula (automatically calculated using the software of EZ Reader II System). Inhibition (%)=100×(1−Ci/Co) (a) Ci: Conversion rate of a reaction of a test compound with substrate solution A−conversion rate of a reaction of DMSO with substrate solution B Co: Conversion rate of a reaction of DMSO with substrate solution A−conversion rate of a reaction of DMSO with substrate solution B
(§4) Based on the inhibition rates of the test compound at 12 different concentrations according to the formula (a), a 4-parameter logistic regression curve was drawn. At this time, the 4-parameter logistic regression equation is expressed as follows. Inhibition (%)=Bottom+(Top−Bottom)/(1+(X/IC50)^^slope) (b) Top: Upward asymptote Slope: Slope parameter IC50: Value X of (Top+Bottom)/2 Bottom: Downward asymptote X: Concentration of test compound
(§5) First, any given initial values are inputted into Top, Slope, IC50, Bottom (Top=100, Slope=−1, IC50=approx. IC50, and Bottom=0), so that a regression curve was drawn. Subsequently, a least-squares method was executed to the sum of squares of a difference between the measured value and the estimated value obtained from formula (b) to calculate the coefficient of the 4-parameter logistic regression equation, so as to calculate IC50.

Assay [2] deals with phosphorylated RET (ETV-RET) in Ba/F3-RET tumors. As to the kind of experiment: One shot PKPD analysis, Ba/F3-RET tumors. Type of assay: in vivo, mice. The procedure:
Murine pro-B cells, Ba/F3, expressing fusion protein of ets variant 6 (ETV)-RET and ETV-RET-V804L were constructed by Daiichi Sankyo RD Novare Co., Ltd., and cultivated in RPM11640 medium (Thermo Fisher Scientific K.K.) supplemented with 10% (v/v) heat-inactivated fetal bovine serum (FBS, GE Healthcare) and 1.5 µg/mL puromycin in a CO2 incubator that was set at 37° C. with a 5% CO2 atmosphere. The cells were suspended in DPBS and inoculated subcutaneously into mice at 1.0×10^7 cells per mouse. After the tumor had reached a size of 100 to 200 mm^3, the mice were randomized based on tumor diameter and the test compounds (10 mg/kg, Compound 229 or Example 3) which were dissolved in 1% (w/v) hydroxypropyl methylcellulose solution were administrated orally. Control group was administrated with 1% (w/v) hydroxypropyl methylcellulose solution. […] Protein concentration of tumor lysate was quantified by colorimetric reagent (Thermo Fisher Scientific K.K.) and all were diluted to the same concentration by lysis buffer. […] The chemiluminescence reaction of HRP and the substrate (Pierce ECL Plus Western Blotting Substrate, Cat. No. 32132, Thermo Fisher Scientific K.K.) was detected by an image scanner Typhoon 9400 (GE Healthcare). Signal intensities fo phosphorylated RET (pRET) and RET were quantified and calculated as following methods. […]

Another assay concerns the target RET-wild type (Homo sapiens (Human), UniProt P07949). Kind of assay: Evaluation of RET kinase inhibiting activity (cell system), Ba/F3 cells overexpressing Myc tagged RET. Type of assay: cell-based. As to conditions: Ba/F3, compound 2 hours, read-out: RET-wild type IC50. On the procedure: as §1
Assay [3] addresses RET-Gatekeeper mutation (V804L) recombinant protein (Homo sapiens (Human), UniProt P07949, V804L). Kind of assay: Evaluation of RET kinase inhibiting activity (cell-free system), gatekeeper mutant. Format: biochemical. The procedure: as §2, §3, §4, §5
The test system of assay [4] is non-small cell lung cancer cell line LC-2/ad having a CCDC6-RET fusion gene. As to the kind of experiment: Cell growth inhibitory activity, non-small cell lung cancer cell line LC-2/ad. Type of assay: cell-based. The settings on record: Homo sapiens, 216 h; LC-2/ad cells, 9 days, CellTiter-Glo. On the procedure: The cell growth inhibitory activity of the test compound on the non-small cell lung cancer cell line LC-2/ad having a CCDC6-RET fusion gene (RIKEN, J Thorac Oncol. 2012 December, 7(12), 1872-6) was measured.
LC-2/ad cells were seeded on a 96-well plate at a cell density of 5,000 cells per well, and then cultured at 37° C. in the presence of 5% CO2 overnight in a medium prepared by mixing RPMI-1640 containing 15% FBS and 25 mM HEPES with Ham's F12 Mixture at a mixing ratio of 1:1. Thereafter, the test compound was diluted, and then added to the 96-well plate. As a negative control, dimethyl sulfoxide (hereinafter referred to as DMSO) was added. The obtained mixture was cultured at 37° C. in the presence of 5% CO2 for 9 days, and thereafter, a cell count measuring reagent CellTiter-Glo® Luminescent Cell Viability Assay (Promega, # G7571) was added to the culture, followed by stirring the mixture. Thereafter, using a luminescence measurement device Envision, the luminescence intensity was measured. The measurement value of a well to which only the medium had been added was define as a survival rate of 0%, and the measurement value of a well to which DMSO had been added was defined as a survival rate of 100%. The survival rate of the LC-2/ad cells in the presence of each concentration of the test compound was calculated.

Assay [5] concerns thyroid gland cancer cell line TT having RET activating mutation (C634W). As to the kind of experiment: Cell growth inhibitory activity, thyroid gland cancer cell line TT. Type of assay: cell-based. As to conditions: Homo sapiens, 216 h; TT cells, 9 days, CellTiter-Glo. The procedure: The cell growth inhibitory activity of the test compound on the thyroid gland cancer cell line TT having RET activating mutation (C634W) (Biochemical and Biophysical Research Communications. 1995 Feb. 27 (207), 1022-1028) was measured.
TT cells were seeded on a 96-well plate at a cell density of 5,000 cells per well, and were then cultured at 37° C. in the presence of 5% CO2 overnight in an F-12K nutrient mixture medium containing 10% FBS. Thereafter, the compound was diluted, and then added to the 96-well plate. As a negative control, dimethyl sulfoxide (hereinafter referred to as DMSO) was added. The obtained mixture was cultured at 37° C. in the presence of 5% CO2 for 9 days, and thereafter, a cell count measuring reagent CellTiter-Glo® Luminescent Cell Viability Assay was added to the culture, followed by stirring the mixture. Thereafter, using a luminescence measurement device Envision (Perkin Elmer), the luminescence intensity was measured. The measurement value of a well to which only the medium had been added was define as a survival rate of 0%, and the measurement value of a well to which DMSO had been added was defined as a survival rate of 100%. The survival rate of the TT cells in the presence of each concentration of the test compound was calculated.

Where [6] appears, read: cell-free system, ATP 1 mM, read-out: RET-wild type IC50.
The mark [7] stands for this setting: cell-free system, ATP 1 mM, read-out: RET-V804L IC50.

We go through two compounds from US10851092B2, “Pyridine compound” (Daiichi Sankyo Company, Limited, priority 2016, dated 2020).

Read-outs that look alike come from different tables or passages of the source.

Sequence of RET-Gatekeeper mutation (V804L) recombinant protein (P07949 29-1114 V804L): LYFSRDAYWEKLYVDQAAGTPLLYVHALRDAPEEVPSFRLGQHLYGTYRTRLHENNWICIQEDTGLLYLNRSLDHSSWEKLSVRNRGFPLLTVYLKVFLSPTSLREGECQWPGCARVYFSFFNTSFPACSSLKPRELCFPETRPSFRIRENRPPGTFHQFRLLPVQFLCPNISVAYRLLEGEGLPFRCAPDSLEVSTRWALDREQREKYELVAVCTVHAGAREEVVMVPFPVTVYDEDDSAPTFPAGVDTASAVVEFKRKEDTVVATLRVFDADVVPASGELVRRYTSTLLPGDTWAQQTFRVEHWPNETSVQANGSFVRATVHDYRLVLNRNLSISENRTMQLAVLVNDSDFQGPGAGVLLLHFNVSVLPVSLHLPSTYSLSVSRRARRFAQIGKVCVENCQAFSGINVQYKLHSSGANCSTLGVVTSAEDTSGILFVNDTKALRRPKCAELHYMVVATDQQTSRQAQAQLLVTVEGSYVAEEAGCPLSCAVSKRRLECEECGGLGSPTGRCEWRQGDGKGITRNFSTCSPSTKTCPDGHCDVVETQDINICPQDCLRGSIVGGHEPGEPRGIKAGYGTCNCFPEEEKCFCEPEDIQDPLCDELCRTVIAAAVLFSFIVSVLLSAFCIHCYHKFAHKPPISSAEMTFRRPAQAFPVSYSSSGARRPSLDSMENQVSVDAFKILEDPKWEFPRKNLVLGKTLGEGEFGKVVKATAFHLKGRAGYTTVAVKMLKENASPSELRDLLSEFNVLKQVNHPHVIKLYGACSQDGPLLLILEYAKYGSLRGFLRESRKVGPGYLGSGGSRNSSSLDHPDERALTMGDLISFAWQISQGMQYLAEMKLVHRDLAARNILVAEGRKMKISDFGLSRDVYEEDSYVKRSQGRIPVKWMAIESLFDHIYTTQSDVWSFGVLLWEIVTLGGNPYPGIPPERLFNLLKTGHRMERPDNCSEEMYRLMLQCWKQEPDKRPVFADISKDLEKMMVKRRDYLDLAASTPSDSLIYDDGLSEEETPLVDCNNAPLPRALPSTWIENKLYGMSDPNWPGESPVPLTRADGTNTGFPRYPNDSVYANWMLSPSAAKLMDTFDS
Sequence of RET recombinant protein (RET-wild type) (P07949 29-1114): as the sequence (P07949 29-1114 V804L) above, with L776V counted along it
Sequence of RET-V804L (P07949 29-1114 V804L): as the sequence (P07949 29-1114 V804L) above
Sequence of RET-wild type (P07949 29-1114): as the sequence (P07949 29-1114 V804L) above, with L776V counted along it

With `COc1cc2cc(-c3ccc(CC(=O)Nc4cc(C(C)(C)C(F)(F)F)no4)cn3)cnc2cc1OC` [Example 3, 2-[6-(6,7-Dimethoxyquinolin-3-yl)pyridin-3-yl]-N-[3-(1,1,1-trifluoro-2-methylpropan-2-yl)-1,2-oxazol-5-yl]acetamide], the IC50 against RET-V804L stood at 15 nM; in assay [1] (setting [6]) it was 4.6 nM; in assay [1] (non-cell system, read-out: Biochemical assay (non-cell system) IC50 (nM) RET-WT), 4.6 nM; on RET-wild type it was 4 nM; in assay [3] (setting [7]), 6.3 nM; in assay [3] (non-cell system, read-out: Biochemical assay (non-cell system) IC50 (nM) RET-V804L), 6.3 nM. Further, in assay [2] (10 mg/kg oral), the “inhibition of pRET in Ba/F3-RET tumors” value was “clearly inhibited”. Further, the “Relative phosphorylation of RET (%) in Ba/F3-RET tumors” value in assay [2] (Dose: 10 mg/kg oral, six hours after administration, relative to vehicle) was determined as 6%.
As for `COc1cc2cc(-c3ccc(CC(=O)Nc4cc(C(C)(C)C(F)(F)F)n[nH]4)cn3)cnc2cc1OC` [Example 5, 2-[6-(6,7-Dimethoxyquinolin-3-yl)pyridin-3-yl]-N-[3-(1,1,1-trifluoro-2-methylpropan-2-yl)-1H-pyrazol-5-yl]acetamide], the IC50 worked out at 15 nM at RET-V804L; 82 nM in assay [4]; 2.2 nM in assay [1] (setting [6]); 17 nM in assay [5]; 10 nM at RET-wild type; 2.7 nM in assay [3] (setting [7]).
